Here are results for one sequence from US10240133B2, “ERK-derived peptides and uses thereof” (Yeda Research and Development Co. Ltd., priority 2013, dated 2019).

Common to all, as to format: cell-based
For assay [1], the system named is other cell lines examined. The experiment in a line: Apoptosis (TUNEL, PARP-1 cleavage). The method, then:
(§1) FIGS. 5A-5D illustrate that the EPE peptide leads to apoptosis of B-Raf mutant cancer cells. (A) The EPE peptide affects the morphology of treated cells. The indicated cells were treated with either the EPE or Scr peptides, DMSO, or taxol for 72 h, and photographed by a light microscope. (B) The EPE peptide induces apoptosis in melanoma cells detected by TUNEL. The indicated cell lines were treated as in A for 24 h. Apoptosis was detected by TUNEL staining. Images were obtained by florescence microscope. (C) Quantification of B. The bar-graph represents percent of apoptotic cells calculated in 10 different fields. (D) The EPE peptide induces apoptosis of melanoma cells detected by PARP cleavage. The indicated cell lines were treated as in (A) for 24 h. Cell extracts were subjected to Western blotting with αPARP Ab.
(§2) Cells were seeded on glass cover slips in a 12-wells plate at 25% confluence with medium containing 1% of FCS. Peptides (EPE or Scr), DMSO, or U0126 in a final concentration of 10 μM, were added after 4 h (considered as time “0”). TUNEL staining was performed at 24 h after the treatment according to manufacturer instruction (Roche Applied Science, Nutley, N.J., USA). Briefly, the medium was removed and cells were fixed with 3% of paraformaldehyde (1.5 h, 23° C.). Cells were rinsed twice with PBS and permeabilized with 0.1% Triton X-100 and 0.1% sodium citrate for 2 min on ice. Cells were rinsed twice with PBS and 28 μl of TUNEL reaction mixture (25 μl of TUNEL label, 2.5 μl of TUNEL enzyme and 0.1 mg/ml of DAPI) was added directly on top of the slide, cells were incubated for 16 h in humid box at 37° C. Cover slips were rinsed three times with PBS and mounted on microscope slides. The slides were dried and then subjected to image acquisition by a florescence microscope. For morphology assay, the cells were seeded at approximately 25% confluence in 6 cm plates with medium containing 1% FCS. Peptides (EPE and Scr) or DMSO or U0126 in a final concentration of 10 μM, were added after 4 h (considered to be time 0), 24 h and 48 h. Images were obtained by a light microscope (Olympus BX51) after 72 h.

The next assay concerns B-Raf mutated melanomas. As to the kind of experiment: Apoptosis (TUNEL, PARP-1 cleavage). To be noted: 24 h. On the procedure: as §1, §2
The test system of a further assay is Elk1. The experiment in a line: Western blotting of Elk1 phosphorylation. To be noted: varied among the cell lines; EPE vs scrambled after TPA. On the procedure:
(A) EPE peptide prevents ERK1/2-importin7 interaction. HeLa cells were serum starved (0.1%, 16 hours), pretreated with EPE peptide, scrambled peptide (10 μM, 2 hours) or DMSO, and then stimulated with TPA (250 nM, 15 min). ERK1 were precipitated with αgERK1 Ab; importin7 co-immunoprecipitated with ERK1 was detected by WB with αimportin7 Ab. […] T47D, HeLa, MDA-MB-231 and A2352 cells were serum starved (0.1%, 16 hours), pretreated with EPE peptide, scrambled peptide (10 μM, 2 hours) or DMSO control, and then stimulated with TPA (250 nM, indicated times). Cell extracts were subjected to Western blot analysis with the indicated Abs. (C) EPE peptide inhibits phosphorylation of c-Myc and Elk1 in B-Raf melanomas. A2158 and A2352 cells were treated with scrambled and EPE peptide for two hours and then stimulated with the indicated concentration of TPA for 30 min. […] (D) Quantification of some of the results in B and C. […]
(i) Preparation of cellular extracts for Western Blotting: Cells were rinsed twice with ice-cold PBS and scraped into Radio-immunoprecipitation assay buffer (RIPA; 137 mM NaCl, 20 mM Tris (pH 7.4), 10% glycerol, 1% Triton X-100, 0.5% deoxycholate, 0.1% SDS, 2 mM EDTA, 1 mM PMSF, and 20 μM leupeptin). The extracts were centrifuged (20,000×g, 15 min, 4° C.), and the supernatants were further analyzed by Western blotting. […]
In general terms: Immunoblotting shows a protein as a band on a membrane.

“GQLNHILGILGEPEQED (Synthetic peptide (EPE)) [EPE peptide, NTS-derived peptide with phosphomimetic EPE motif]”: in assay [1], the “apoptosis / cell death” value is recorded as “No apoptosis was detected”. Moreover, in the assay on B-Raf mutated melanomas, the “apoptosis (TUNEL, PARP-1)” value was “enhanced apoptosis” and the “apoptosis relative to Taxol” value was “as strong as the apoptosis induced by Taxol”. For the same sequence, the “inhibition of phosphorylation of Elk1” value with Elk1 was 20-45%.
